# From US20160024071A1, “INHIBITORS OF LRRK2 KINASE ACTIVITY” (ELAN PHARMACEUTICALS, LLC., priority 2013, published 2016)
# Target: T1, recombinant GST-LRRK2 (wild-type) (Homo sapiens, UniProt Q5S007)
# T1 construct: GST (N); purchased Invitrogen
# Experiment: LRRK2 TR-FRET peptide assay (wild-type)
# Format: biochemical
# Conditions: 100 μM ATP, 100 nM biotin-LRRKtide, 10 nM kinase, 60 min room temperature
# Method: Compounds as described herein (compounds of Formula I, e.g., compounds of the above Examples) are tested for their in vitro kinase activities using various LRRK2 (including LRRK2 G2019S mutant) assays. For example, assays were performed in a total volume of 20 μL using the same kinase reaction buffer (50 mM HEPES pH 7.5, 10 mM MgCl2, 1 mM EGTA, 2 mM DTT and 0.01% Tween-20) for wild-type or G2019S mutant LRRK2. Serially diluted compounds (1% DMSO as co-solvent) were pre-incubated with recombinant GST-LRRK2 (wild-type, or G2019S mutant, Invitrogen) for 15 minutes at room temperature in 384-well Corning black plates. Mixtures of ATP and biotin-LRRKtide substrate (biotin-RLGRDKYKTLRQIRQ) were added to the wells at a final concentration of 100 μM ATP and 100 nM substrate, with final kinase concentration of 10 nM. The kinase reactions were carried out at room temperature for 60 minutes, then the reaction was stopped with the addition of 10 μL/well of stop/detection buffer (25 mM HEPES pH 7.5, 66 mM EDTA, 0.8 M KF and 0.1% BSA) that contains streptavidin-XL665 (12.5 nM) and europium-conjugated phospho-specific antibody (2 nM). The plates were read 1 hour later and the time-resolved fluorescence (665 nm to 615 nm ratio) measured using an Envision reader. The inhibition of each well was calculated using the control and background readings for that plate. IC50 values were determined from dose-response curves using eight concentrations from the serial dilution of the test compounds.
# T1 sequence (Q5S007 whole entry): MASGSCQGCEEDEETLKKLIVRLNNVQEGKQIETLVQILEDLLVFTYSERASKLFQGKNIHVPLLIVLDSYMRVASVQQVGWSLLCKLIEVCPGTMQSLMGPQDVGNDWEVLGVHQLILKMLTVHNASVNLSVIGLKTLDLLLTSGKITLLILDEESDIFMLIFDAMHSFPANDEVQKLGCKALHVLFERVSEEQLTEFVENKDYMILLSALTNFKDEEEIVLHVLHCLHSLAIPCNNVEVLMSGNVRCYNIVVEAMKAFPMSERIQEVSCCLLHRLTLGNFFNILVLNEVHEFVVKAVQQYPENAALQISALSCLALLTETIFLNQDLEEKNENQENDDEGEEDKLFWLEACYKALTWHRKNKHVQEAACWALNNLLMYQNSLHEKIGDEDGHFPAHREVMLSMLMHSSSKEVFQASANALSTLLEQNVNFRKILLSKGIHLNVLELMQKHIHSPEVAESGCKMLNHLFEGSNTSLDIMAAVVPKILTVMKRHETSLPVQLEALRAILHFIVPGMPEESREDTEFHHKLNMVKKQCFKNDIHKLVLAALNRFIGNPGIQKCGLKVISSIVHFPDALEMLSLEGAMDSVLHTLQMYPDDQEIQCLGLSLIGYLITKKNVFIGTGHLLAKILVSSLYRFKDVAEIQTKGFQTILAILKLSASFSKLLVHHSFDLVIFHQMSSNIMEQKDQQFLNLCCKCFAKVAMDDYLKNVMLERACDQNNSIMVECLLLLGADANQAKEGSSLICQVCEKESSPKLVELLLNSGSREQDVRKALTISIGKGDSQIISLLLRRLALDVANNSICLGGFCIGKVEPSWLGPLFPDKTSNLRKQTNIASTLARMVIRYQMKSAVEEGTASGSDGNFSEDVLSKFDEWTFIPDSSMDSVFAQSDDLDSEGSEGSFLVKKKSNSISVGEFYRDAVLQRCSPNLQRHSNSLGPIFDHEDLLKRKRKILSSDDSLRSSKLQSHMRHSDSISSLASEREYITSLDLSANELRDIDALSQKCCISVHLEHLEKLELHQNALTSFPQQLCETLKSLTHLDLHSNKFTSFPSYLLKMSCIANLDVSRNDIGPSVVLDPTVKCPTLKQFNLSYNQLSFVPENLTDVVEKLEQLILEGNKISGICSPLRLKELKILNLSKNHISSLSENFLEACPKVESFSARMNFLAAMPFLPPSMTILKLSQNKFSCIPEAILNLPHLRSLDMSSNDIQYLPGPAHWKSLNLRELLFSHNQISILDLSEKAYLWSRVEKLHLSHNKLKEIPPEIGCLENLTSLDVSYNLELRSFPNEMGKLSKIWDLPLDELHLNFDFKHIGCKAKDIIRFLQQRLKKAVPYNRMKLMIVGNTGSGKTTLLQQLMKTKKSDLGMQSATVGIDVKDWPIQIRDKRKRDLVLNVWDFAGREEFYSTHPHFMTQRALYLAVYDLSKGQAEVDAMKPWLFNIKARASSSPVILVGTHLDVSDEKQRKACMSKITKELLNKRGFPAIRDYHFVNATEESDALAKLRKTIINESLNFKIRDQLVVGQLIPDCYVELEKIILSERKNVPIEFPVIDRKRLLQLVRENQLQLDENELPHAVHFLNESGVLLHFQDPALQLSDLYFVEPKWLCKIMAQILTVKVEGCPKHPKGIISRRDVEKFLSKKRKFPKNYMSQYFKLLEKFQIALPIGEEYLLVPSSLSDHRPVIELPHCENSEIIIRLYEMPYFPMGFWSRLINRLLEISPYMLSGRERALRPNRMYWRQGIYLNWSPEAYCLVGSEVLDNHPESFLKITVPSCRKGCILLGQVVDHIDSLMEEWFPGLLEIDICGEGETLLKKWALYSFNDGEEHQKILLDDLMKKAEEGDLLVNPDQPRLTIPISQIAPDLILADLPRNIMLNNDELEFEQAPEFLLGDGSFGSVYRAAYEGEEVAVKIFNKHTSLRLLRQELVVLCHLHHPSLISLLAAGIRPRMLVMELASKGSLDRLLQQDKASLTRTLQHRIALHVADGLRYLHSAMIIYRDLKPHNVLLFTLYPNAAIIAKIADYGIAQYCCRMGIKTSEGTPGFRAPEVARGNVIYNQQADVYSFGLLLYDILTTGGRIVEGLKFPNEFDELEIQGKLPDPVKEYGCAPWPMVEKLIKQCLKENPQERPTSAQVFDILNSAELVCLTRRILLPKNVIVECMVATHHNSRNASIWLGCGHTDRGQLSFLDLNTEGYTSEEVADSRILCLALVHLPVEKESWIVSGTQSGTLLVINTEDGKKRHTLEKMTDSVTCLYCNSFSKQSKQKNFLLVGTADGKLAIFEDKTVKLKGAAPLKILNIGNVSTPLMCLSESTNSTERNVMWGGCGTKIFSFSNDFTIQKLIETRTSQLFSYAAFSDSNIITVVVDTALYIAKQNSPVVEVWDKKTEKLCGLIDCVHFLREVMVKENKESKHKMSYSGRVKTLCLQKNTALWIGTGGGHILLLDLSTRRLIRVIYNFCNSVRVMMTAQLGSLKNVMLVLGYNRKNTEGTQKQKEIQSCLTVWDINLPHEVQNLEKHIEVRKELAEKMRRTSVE
row,SMILES,IC50
1,"O=C(NN=C1SCC(=O)N1c1ccccc1)c1ccc(Cl)s1 [Compound 1-6, 5-chloro-N′-(4-oxo-3-phenylthiazolidin-2-ylidene)thiophene-2-carbohydrazide]",0.9 nM
2,"CC1SC(=NNC(=O)c2ccc(Cl)s2)N(c2ccccc2)C1=O (stereo not drawn) [Compound 1-7, 5-chloro-N′-(5-methyl-4-oxo-3-phenylthiazolidin-2-ylidene)thiophene-2-carbohydrazide]",11 nM
3,"O=C(NN=C1SCC(=O)N1c1cccc(F)c1)c1ccc(Cl)s1 [Compound 1-8, 5-chloro-N′-(3-(3-fluorophenyl)-4-oxothiazolidin-2-ylidene)thiophene-2-carbohydrazide]",1.1 nM
4,"COc1ccccc1N1C(=O)CSC1=NNC(=O)c1ccc(Cl)s1 [Compound 1-9, 5-chloro-N′-(3-(2-methoxyphenyl)-4-oxothiazolidin-2-ylidene)thiophene-2-carbohydrazide]",1170 nM
5,"O=C(NN=C1SCC(=O)N1c1ccccc1F)c1ccc(Cl)s1 [Compound 1-10, 5-chloro-N′-(3-(2-fluorophenyl)-4-oxothiazolidin-2-ylidene)thiophene-2-carbohydrazide]",0.5 nM
6,"O=C(NN=C1SCC(=O)N1c1ccc(F)cc1)c1ccc(Cl)s1 [Compound 1-11, 5-chloro-N′-(3-(4-fluorophenyl)-4-oxothiazolidin-2-ylidene)thiophene-2-carbohydrazide]",0.9 nM
7,"O=C(NN=C1SCC(=O)N1c1ccc(F)cc1F)c1ccc(Cl)s1 [Compound 1-12, 5-chloro-N′-(3-(2,4-difluorophenyl)-4-oxothiazolidin-2-ylidene)thiophene-2-carbohydrazide]",0.5 nM
8,"CC(C)C1SC(=NNC(=O)c2ccc(Cl)s2)N(c2ccccc2)C1=O (stereo not drawn) [Compound 1-13, 5-chloro-N′-(5-isopropyl-4-oxo-3-phenylthiazolidin-2-ylidene)thiophene-2-carbohydrazide]",210 nM
9,"CC1(C)SC(=NNC(=O)c2ccc(Cl)s2)N(c2ccccc2)C1=O [Compound 1-14, 5-chloro-N′-(5,5-dimethyl-4-oxo-3-phenylthiazolidin-2-ylidene)thiophene-2-carbohydrazide]",330 nM
10,"O=C(NN=C1SCC(=O)N1Cc1ccccc1)c1ccc(Cl)s1 [Compound 1-15, N′-(3-benzyl-4-oxothiazolidin-2-ylidene)-5-chlorothiophene-2-carbohydrazide]",13 nM
11,"O=C(NN=C1SCC(=O)N1c1cccc(C(F)(F)F)c1)c1ccc(Cl)s1 [Compound 1-16, 5-chloro-N′-(4-oxo-3-(3-(trifluoromethyl)phenyl)thiazolidin-2-ylidene)thiophene-2-carbohydrazide]",111 nM
12,"O=C(NN=C1SCCN1c1ccccc1)c1ccc(Cl)s1 [Compound 2-19, 5-chloro-N′-(3-phenylthiazolidin-2-ylidene)thiophene-2-carbohydrazide]",51 nM
